Measured values published in EP3574917A1, “ANTI-CANCER AGENT, METHOD FOR SCREENING FOR ANTI-CANCER AGENT, KIT FOR DETERMINATION OF EFFICACY ON CANCER, AND METHOD FOR DETERMINING EFFICACY ON CANCER” (University of Miyazaki, priority 2017, dated 2018).

Columns and labels:
Assay in all cases: cellular proliferative potential (cell counting kit-8)
Type in all cases: cell-based
KOB = KOB (NDRG2 hardly expressed), AdOX added to culture medium at start of culture, over time
Protocol: (§1) In the following Examples, HTLV-1-uninfected T-cell lymphocytic acute leukemia T-ALL (Jurkat and MOLT4), an HTLV-1-infected cell line (HUT102), an ATLL cell line (KOB), an osteosarcoma cell line (U2OS), and a uterine cancer cell line (HeLa) were used as cell lines. The cell lines described above were cultured in a RPM11640 or DMEM culture solution, to which 10% fetal bovine serum (FBS) supplemented or unsupplemented with IL2 (50 U/mL) was added, under 5% carbon dioxide at 37°C.
(§2) For each established cell line, 2 ×10^3 cells were cultured on a 96-well plate, and cell counting kit-8 (manufactured by DOJINDO CO., LTD) was added at a predetermined time. The number of cells was quantified based on an absorbance of 450 nm or 490 nm, to evaluate cellular proliferative potential.
(§3) In addition to HUT102 and KOB, Jurkat and MOLT4 were cultured. At the time of the start of the culture, AdOX (manufactured by Sigma-Aldrich Co. LLC) as a PRMT5 inhibitor was added to each culture medium. Like the Examples 2 described above, cellular proliferative potential was evaluated.

Jurkat = details: without the decreased expression of NDRG2, AdOX added at start of culture
Protocol: as §1, §2, §3

HUT102 = HUT102 (NDRG2 hardly expressed), AdOX added to culture medium at start of culture, over time
Protocol: as §1, §2, §3

MOLT4 = details: MOLT4, without the decreased expression of NDRG2, AdOX added at start of culture
Protocol: as §1, §2, §3

U2OS = U2OS (NDRG2 hardly expressed), in the presence of AdOX, over time
Protocol: as §1, §2
(§4) In the cell lines of a solid cancer, the influence of the decreased expression of a PRMT5 gene was also evaluated in a manner similar to the manner of Example 2. The cellular proliferative potential of the parent lines, shluc cell lines, shPRMT5-3 cell lines, and shPRMT5-4 cell lines of U2OS and HeLa, and an influence on the cellular proliferative potential of a PRMT inhibitor were evaluated.

HeLa = HeLa (NDRG2 hardly expressed), in the presence of AdOX, over time
Protocol: as §1, §2, §4

Nc1ncnc2c1ncn2[C@@H](C=O)O[C@@H](C=O)CO [AdOX, adenosine-2',3'-dialdehyde]
suppression of cell proliferation (KOB): exhibited the suppression of cell proliferation in concentration-dependent manners | suppression of cell proliferation (Jurkat): not observed | suppression of cell proliferation (HUT102): exhibited the suppression of cell proliferation in concentration-dependent manners | suppression of cell proliferation (MOLT4): not observed | suppression of cell proliferation (U2OS): suppressed cell proliferation in a concentration-dependent manner | suppression of cell proliferation (HeLa): suppressed cell proliferation in a concentration-dependent manner
